Assays:
Type in all cases: in vivo
Conditions in all cases: evaluated after 13 days
Setaria faberi (SETFA) [1] = test: Pre-emergence herbicidal activity, Setaria faberi; parameters: key: 5=total damage to plant; 0=no damage to plant
Experimental: (§1) Seeds of a variety of test species were sown in standard soil in pots: Triticum aestivium (TRZAW), Avena fatua (AVEFA), Alopecurus myosuroides (ALOMY), Echinochloa crus-galli (ECHCG), Lolium perenne (LOLPE), Zea Mays (ZEAMX), Abutilon theophrasti (ABUTH), Amaranthus retroflexus (AMARE) and Setaria faberi (SETFA). After cultivation for one day (pre-emergence) under controlled conditions in a glasshouse (at 24/16° C., day/night; 14 hours light; 65% humidity), the plants were sprayed with an aqueous spray solution derived from the formulation of the technical active ingredient in acetone/water (50:50) solution containing 0.5% Tween 20 (polyoxyethelyene sorbitan monolaurate, CAS RN 9005-64-5). The test plants were then grown in a glasshouse under controlled conditions (at 24/16°, day/night; 14 hours light; 65% humidity) and watered twice daily. After 13 days, the test was evaluated (5=total damage to plant; 0=no damage to plant).

[2] = tested on: Echinochloa crus-galli (ECHCG); test: Post-emergence herbicidal activity, Echinochloa crus-galli; parameters: key: 5=total damage to plant; 0=no damage to plant
Experimental: (§2) Seeds of a variety of test species were sown in standard soil in pots: Triticum aestivium (TRZAW), Avena fatua (AVEFA), Alopecurus myosuroides (ALOMY), Echinochloa crus-galli (ECHCG), Lolium perenne (LOLPE), Zea Mays (ZEAMX), Abutilon theophrasti (ABUTH), Amaranthus retroflexus (AMARE) and Setaria faberi (SETFA). After 8 days cultivation (post-emergence) under controlled conditions in a glasshouse (at 24/16° C., day/night; 14 hours light; 65% humidity), the plants were sprayed with an aqueous spray solution derived from the formulation of the technical active ingredient in acetone/water (50:50) solution containing 0.5% Tween 20 (polyoxyethelyene sorbitan monolaurate, CAS RN 9005-64-5). The test plants were then grown in a glasshouse under controlled conditions (at 24/16° C., day/night; 14 hours light; 65% humidity) and watered twice daily. After 13 days, the test was evaluated (5=total damage to plant; 0=no damage to plant).

Lolium perenne (LOLPE) [3] = test: Pre-emergence herbicidal activity, Lolium perenne; parameters: key: 5=total damage to plant; 0=no damage to plant
Experimental: as §1

[4] = tested on: Alopecurus myosuroides (ALOMY); test: Pre-emergence herbicidal activity, Alopecurus myosuroides; parameters: key: 5=total damage to plant; 0=no damage to plant
Experimental: as §1

Setaria faberi (SETFA) [5] = test: Post-emergence herbicidal activity, Setaria faberi; parameters: key: 5=total damage to plant; 0=no damage to plant
Experimental: as §2

[6] = tested on: Echinochloa crus-galli (ECHCG); test: Pre-emergence herbicidal activity, Echinochloa crus-galli
Experimental: as §1

[7] = tested on: Alopecurus myosuroides (ALOMY); test: Post-emergence herbicidal activity, Alopecurus myosuroides; parameters: key: 5=total damage to plant; 0=no damage to plant
Experimental: as §2

Lolium perenne (LOLPE) [8] = test: Post-emergence herbicidal activity, Lolium perenne
Experimental: as §2

[9] = tested on: Triticum aestivium (TRZAW); test: Pre-emergence herbicidal activity, Triticum aestivium; parameters: key: 5=total damage to plant; 0=no damage to plant
Experimental: as §1

[10] = tested on: Triticum aestivium (TRZAW); test: Post-emergence herbicidal activity, Triticum aestivium; parameters: key: 5=total damage to plant; 0=no damage to plant
Experimental: as §2

Avena fatua (AVEFA) [11] = test: Pre-emergence herbicidal activity, Avena fatua; parameters: key: 5=total damage to plant; 0=no damage to plant
Experimental: as §1

Avena fatua (AVEFA) [12] = test: Post-emergence herbicidal activity, Avena fatua
Experimental: as §2

SMILES	Control of SETFA after pre-emergence application (score 0-5) (Setaria faberi (SETFA) [1]; 1000 g/ha)	Control of ECHCG after post-emergence application (score 0-5) ([2]; 1000 g/ha)	Control of LOLPE after pre-emergence application (score 0-5) (Lolium perenne (LOLPE) [3]; 1000 g/ha)	Control of ALOMY after pre-emergence application (score 0-5) ([4]; 1000 g/ha)	Control of SETFA after post-emergence application (score 0-5) (Setaria faberi (SETFA) [5]; 1000 g/ha)	Control of ECHCG after pre-emergence application (score 0-5) ([6]; 1000 g/ha)	Control of ALOMY after post-emergence application (score 0-5) ([7]; 1000 g/ha)	Control of LOLPE after post-emergence application (score 0-5) (Lolium perenne (LOLPE) [8]; 1000 g/ha)	Control of TRAZW after pre-emergence application (score 0-5) ([9]; 1000 g/ha)	Control of TRAZW after post-emergence application (score 0-5) ([10]; 1000 g/ha)	Control of AVEFA after pre-emergence application (score 0-5) (Avena fatua (AVEFA) [11]; 1000 g/ha)	Control of AVEFA after post-emergence application (score 0-5) (Avena fatua (AVEFA) [12]; 1000 g/ha)	further results
O=C(Nc1ccc(-c2cncc(F)c2)nc1C(F)(F)F)OCc1ccccc1 [Compound B53]	4	5	1	0	5	2	1	2	0	1	1	4	
CN(C(=O)OC(C)(C)C)c1ccc(-c2cc(F)c[n+]([O-])c2)nc1C(F)(F)F [Compound B1, tert-butyl N-[6-(5-fluoro-1-oxido-pyridin-1-ium-3-yl)-2-(trifluoromethyl)-3-pyridyl]-N-methyl-carbamate]	4	4	1	0	5	2	1	2	0	0	2	4	
N#CCCOC(=O)Nc1ccc(-c2cncc(F)c2)nc1C(F)(F)F [Compound B62]	3	5	1	1	4	3	0	2	0	0	2	3	
CCCCOC(=O)Nc1ccc(-c2cncc(F)c2)nc1C(F)(F)F [Compound B58]	2	3	1	0	5	2	0	2	0	0	1	2	
CCCCN(C)C(=O)Nc1ccc(-c2cncc(F)c2)nc1C(F)(F)F [Compound B95]													Control of SETFA after pre-emergence application (score 0-5) (Setaria faberi (SETFA) [1]; 250 g/ha): 4; Control of ECHCG after post-emergence application (score 0-5) ([2]; 250 g/ha): 2; Control of LOLPE after pre-emergence application (score 0-5) (Lolium perenne (LOLPE) [3]; 250 g/ha): 1; Control of ALOMY after pre-emergence application (score 0-5) ([4]; 250 g/ha): 0; Control of SETFA after post-emergence application (score 0-5) (Setaria faberi (SETFA) [5]; 250 g/ha): 5; Control of ECHCG after pre-emergence application (score 0-5) ([6]; 250 g/ha): 1; Control of ALOMY after post-emergence application (score 0-5) ([7]; 250 g/ha): 0; Control of LOLPE after post-emergence application (score 0-5) (Lolium perenne (LOLPE) [8]; 250 g/ha): 1; Control of TRAZW after pre-emergence application (score 0-5) ([9]; 250 g/ha): 0; Control of TRAZW after post-emergence application (score 0-5) ([10]; 250 g/ha): 0; Control of AVEFA after pre-emergence application (score 0-5) (Avena fatua (AVEFA) [11]; 250 g/ha): 0; Control of AVEFA after post-emergence application (score 0-5) (Avena fatua (AVEFA) [12]; 250 g/ha): 3
CC(C)(C#N)OC(=O)Nc1ccc(-c2cncc(F)c2)nc1C(F)(F)F [Compound B118]	4	3	0	0	4	2	0	1	0	0	0	3	
CN(C(=O)N1CCOCC1)c1ccc(-c2cncc(F)c2)nc1C(F)(F)F [Compound B67]	4	4	1	0	4	3	1	1	0	1	0	2	
C#CCOC(=O)Nc1ccc(-c2cncc(F)c2)nc1C(F)(F)F [Compound B61]	2	4	1	1	4	3	1	2	0	0	2	2	
C=CCN(C(=O)N(C)C)c1ccc(-c2cncc(F)c2)nc1C(F)(F)F [Compound B123]	5	3	1	0	5	3	2	1	0	1	1	2	
C=CCN(C(=O)OC(C)(C)C)c1ccc(-c2cncc(F)c2)nc1C(F)(F)F [Compound B9]	5	5	2	1	5	3	1	4	0	1	2	3	

— patent publication US20210127673A1, “HERBICIDES” (SYNGENTA PARTICIPATIONS AG, priority 2016, published 2021)
